Among the data in ChEMBL document CHEMBL6103655, “Structure and Synthesis of Amatyemides A and B, Cyclic Octadepsipeptides from South African Stromatolites” (2025) are Activity and CC50 values, retold here.

Active and inactive are the calls of the source. No cut-off for these calls is given here.

Test [1] has as its system U-87 MG. Put plainly: Induction of oxidative stress in human U-87 MG cells assessed as reduction in GLuc expression at 3 to 6 uM incubated for 18 hrs in the presence of NAC. The format is functional, cell-based. Conditions: U-87MG ATCC, dose 3-6 µM.
For test [2], the system named is U-87 MG. The experiment in a line: Induction of oxidative stress in human U-87 MG cells assessed as reduction in GLuc expression at 3 to 6 uM incubated for 18 hrs. The format is functional, cell-based. Conditions: U-87MG ATCC, dose 3-6 µM.
In test [3] the test system is U-87 MG. Put plainly: Induction of oxidative stress in human U-87 MG cells cultured with GLuc assessed as change in cell viability at 3 to 6 uM incubated for 18 hrs by CellTiter-Glo luminescent assay. The format is functional, cell-based. Conditions: U-87MG ATCC, dose 3-6 µM. On the technique in general: In ATP-based viability assays light output follows the ATP content of the culture.

Test [4] deals with HCT-116. Put plainly: Cytotoxicity against human HCT-116 cells incubated for 72 hrs by CellTiter-Glo assay. The format is functional.
Test [5] concerns SH-SY5Y. The experiment in a line: Cytotoxicity against human SH-SY5Y cells assessed as reduction in cell viability at 10 uM incubated for 72 hrs by CellTiter-Glo assay. The format is functional.
Test [6] has as its system Acinetobacter baumannii. The experiment in a line: Antimicrobial activity against Acinetobacter baumannii ATCC BAA-1605 at 0.14 mg/mL in broth medium incubated for 14 to 16 hrs by Synergy4 plate reader analysis. The format is functional, organism-based. Conditions: time 14-16 hrs.
For test [7], the system named is Pseudomonas aeruginosa. Put plainly: Antimicrobial activity against Pseudomonas aeruginosa ATCC […] at 0.14 mg/mL in broth medium incubated for 14 to 16 hrs by Synergy4 plate reader analysis. The format is functional, organism-based. Conditions: time 14-16 hrs.
Test [8] relates to Klebsiella pneumoniae. The experiment in a line: Antimicrobial activity against Klebsiella pneumoniae ATCC BAA-2344 at 0.14 mg/mL in broth medium incubated for 14 to 16 hrs by Synergy4 plate reader analysis. The format is functional, organism-based. The note with it: time 14-16 hrs.
In test [9] the test system is Escherichia coli. The experiment in a line: Antimicrobial activity against Escherichia coli ATCC BAA-2523 at 0.14 mg/mL in broth medium incubated for 14 to 16 hrs by Synergy4 plate reader analysis. The format is functional, organism-based. Conditions: time 14-16 hrs.
Test [10] has as its system Staphylococcus aureus. Put plainly: Antimicrobial activity against Staphylococcus aureus subsp. aureus ATCC 700698 at 0.14 mg/mL in broth medium incubated for 14 to 16 hrs by Synergy4 plate reader analysis. The format is functional, organism-based. The note with it: time 14-16 hrs.
Test [11] relates to Enterococcus faecium. Put plainly: Antimicrobial activity against Enterococcus faecium ATCC BAA-2317 at 0.14 mg/mL in broth medium incubated for 14 to 16 hrs by Synergy4 plate reader analysis. The format is functional, organism-based. The note with it: time 14-16 hrs.
The subject of test [12] is Candida albicans. The experiment in a line: Antimicrobial activity against Candida albicans ATCC MYA-574 at 0.14 mg/mL in broth medium incubated for 14 to 16 hrs by Synergy4 plate reader analysis. The format is functional, organism-based. Conditions: time 14-16 hrs.
Test [13] deals with Cryptococcus neoformans. Put plainly: Antimicrobial activity against Cryptococcus neoformans var. grubii ATCC 90112 at 0.14 mg/mL in broth medium incubated for 14 to 16 hrs by Synergy4 plate reader analysis. The format is functional, organism-based. The note with it: time 14-16 hrs.

Take `C=C(C)[C@H]1Cc2c(ccc3c2O[C@@H]2COc4cc(OC)c(OC)cc4[C@@H]2C3=O)O1`: the outcome in test [1] was inactive.

As for `COc1ccc(C[C@H](NC(=O)/C(C)=C/[C@H]2CSC([C@@H](C)[C@@H](O)C[C@H](C)C[C@H](O)C(C)(C)C)=N2)C(=O)N(C)[C@@H](C)C(=O)N(C)[C@@H]2C(=O)N3CCC[C@H]3C(=O)OC(C)[C@@H]2C)cc1` (some centres undefined), the outcome in test [1] was Active.

What is called CC50 is the concentration at which the toxic effect on the cells reaches its halfway point. The low end stands for greater toxicity to the cells, the high end for lower toxicity to the cells. For `CCCCCCCCCC[C@H]1OC(=O)[C@H](CC(C)C)N(C)C(=O)[C@H](C(C)C)NC(=O)[C@@H](Cc2ccccc2)NC(=O)[C@H]([C@@H](C)CC)OC(=O)[C@H]([C@@H](C)OC)NC(=O)[C@H](C)NC(=O)[C@H](CC(C)C)NC1=O`, the result in test [2], in test [3], in test [1], in test [5], in [6] and in test [7] was inactive. In addition, the result in [8], in [9], in test [10], in test [11], in [12] and in test [13] was inactive. The same molecule came in with a CC50 in [4] of 3290 nM.

The molecule `CCCCCCCC[C@H]1OC(=O)[C@H](CC(C)C)N(C)C(=O)[C@H](C(C)C)NC(=O)[C@@H](Cc2ccccc2)NC(=O)[C@H]([C@@H](C)CC)OC(=O)[C@H]([C@@H](C)OC)NC(=O)[C@H](C)NC(=O)[C@H](CC(C)C)NC1=O` (stereo in doubt; 2a) [listing 1 of 2 here] registered a CC50 in [4] of 1750 nM. Further, the Activity in [5] was around 50%.

As for `CCCCCCCC[C@H]1OC(=O)[C@H](CC(C)C)N(C)C(=O)[C@H](C(C)C)NC(=O)[C@@H](Cc2ccccc2)NC(=O)[C@H]([C@@H](C)CC)OC(=O)[C@H]([C@@H](C)OC)NC(=O)[C@H](C)NC(=O)[C@H](CC(C)C)NC1=O` (stereo in doubt; 2), the outcome in test [2] was Active. The result in test [3], in test [1], in test [6], in test [7], in test [8] and in [9] was inactive. Moreover, the result in [10], in [11], in [12] and in [13] was inactive.

Take `CCCCCCCC[C@H]1OC(=O)[C@H](CC(C)C)N(C)C(=O)[C@H](C(C)C)NC(=O)[C@@H](Cc2ccccc2)NC(=O)[C@H]([C@@H](C)CC)OC(=O)[C@H]([C@@H](C)OC)NC(=O)[C@H](C)NC(=O)[C@H](CC(C)C)NC1=O` (stereo in doubt; 2a) [listing 2 of 2 here]: in test [1], the outcome was inactive.
